Experimental data from the Deep4Chem optical property database.

Assay: photoluminescence quantum yield (fraction); solvent given as SMILES

## N#Cc1cc2nc3c(nc2cc1C#N)C1c2ccc(N(c4ccccc4)c4ccccc4)cc2C3c2ccc(N(c3ccccc3)c3ccccc3)cc21
In C1CCCCC1
  photoluminescence quantum yield: 0.44
In CC#N
  photoluminescence quantum yield: 0.01
In Cc1ccccc1
  photoluminescence quantum yield: 0.35
In ClCCl
  photoluminescence quantum yield: 0.02

## Fc1nc(F)c(F)c(/C=C2/C(c3c(F)c(F)nc(F)c3F)=Cc3ccccc32)c1F
In CC#N
  photoluminescence quantum yield: 0.01

## CC(C)(C)OC(=O)CN1CCN(c2ccc3c(-c4ccc(I)cc4)c4ccc(=[N+]5CCN(CC(=O)OC(C)(C)C)CC5)cc-4oc3c2)CC1
In ClCCl
  photoluminescence quantum yield: 0.007

## O=C(O)CCCc1ccc2ccc3cccc4ccc1c2c34
In CO
  photoluminescence quantum yield: 0.68

## CCCCCCCCCCCCOc1cc2c3c(ccc4c5c(N6CCOCC6)cc6c7c(ccc(c1c34)c75)C(=O)N(C1CCCCC1)C6=O)C(=O)N(C1CCCCC1)C2=O
In ClC(Cl)Cl
  photoluminescence quantum yield: 0.067

## Cc1ccc(N(c2ccc(C)cc2)c2ccc(-c3ccc(C=C(C#N)C#N)s3)cc2)cc1
In ClC(Cl)Cl
  photoluminescence quantum yield: 0.07

## CCN(CC)c1ccc(-c2nc(Oc3ccc(-c4nc5ccc(Cl)cc5o4)cc3)nc(Oc3ccc(-c4nc5ccc(Cl)cc5o4)cc3)n2)cc1
In CN(C)C=O
  photoluminescence quantum yield: 0.0179

## Cc1c2ccccc2c(C2=C3C=CC=[N+]3[B-](F)(F)n3cccc32)c2ccccc12
In CC#N
  photoluminescence quantum yield: 0.001
In CCCCCC
  photoluminescence quantum yield: 0.041
In CCO
  photoluminescence quantum yield: 0.002
In CN(C)C=O
  photoluminescence quantum yield: 0.002
In Cc1ccccc1
  photoluminescence quantum yield: 0.007
In ClCCl
  photoluminescence quantum yield: 0.005

## CCCCCCCCN1c2ccc(C#Cc3ccc(F)cc3)cc2Sc2cc(C=O)ccc21
In C1CCOC1
  photoluminescence quantum yield: 0.64
In CC#N
  photoluminescence quantum yield: 0.24
In CCCCCC
  photoluminescence quantum yield: 0.48
In CO
  photoluminescence quantum yield: 0.07
In CS(C)=O
  photoluminescence quantum yield: 0.75
In Cc1ccccc1
  photoluminescence quantum yield: 0.52
In ClC(Cl)Cl
  photoluminescence quantum yield: 0.4

## O=[N+]([O-])c1ccc([N+]2=Cc3ccc4c5c(ccc4c3O[B-]2(c2ccccc2)c2ccccc2)C=[N+](c2ccc([N+](=O)[O-])cc2)[B-](c2ccccc2)(c2ccccc2)O5)cc1
In Cc1ccccc1
  photoluminescence quantum yield: 0.63
In ClCCl
  photoluminescence quantum yield: 0.48

## F[B-]1(F)OC(c2ccccc2)=Cc2c3ccccc3c3ccccc3[n+]21
In ClC(Cl)Cl
  photoluminescence quantum yield: 0.131

## COC(=O)c1cccc2c1C#Cc1c(NC(C)=O)cccc1OCCCO2
In CC#N
  photoluminescence quantum yield: 0.29
In ClCCl
  photoluminescence quantum yield: 0.33

## COc1ccc(O)c(-c2nc(C)c3n2CCCC3)c1
In ClCCl
  photoluminescence quantum yield: 0.11

## O=c1c2ccccc2n(-c2ccc(-c3ccc(-n4c5ccccc5c5ccccc54)cc3)cc2)c2ccccc12
In ClCCl
  photoluminescence quantum yield: 0.28

## CC(=O)c1c(N[C@@H](Cc2ccccc2)C(=O)O)c2ccc(N(C)C)cc2oc1=O
In ClCCl
  photoluminescence quantum yield: 0.0026

## CC(C)(C)c1ccc2oc3nc4oc5cc(-n6c7ccccc7c7ccccc76)ccc5c4cc3c2c1
In ClC(Cl)Cl
  photoluminescence quantum yield: 0.714

## NCCCCCCCCCCCCN1C(=O)c2ccc3c4ccc5c6c(ccc(c7ccc(c2c37)C1=O)c64)C(=O)NC5=O
In CN(C)C=O
  photoluminescence quantum yield: 0.89

## CN(C)c1ccc(C2=C3C=C(c4ccc(C=C(C#N)C#N)cc4)S[C@]34c3ccccc3[C@H]2c2ccccc24)cc1
In ClCCl
  photoluminescence quantum yield: 0.01

## CCCCN1C(=O)c2cc(Oc3ccc(C(C)(C)C)cc3)c3c4c(Oc5ccc(C(C)(C)C)cc5)cc5c(=O)[nH]/c(=C\c6ccc7ccccc7n6)c6cc(Oc7ccc(C(C)(C)C)cc7)c(c7c(Oc8ccc(C(C)(C)C)cc8)cc(c2c37)C1=O)c4c56
In C1CCOC1
  photoluminescence quantum yield: 0.3
In Cc1ccccc1
  photoluminescence quantum yield: 0.313
In ClCCl
  photoluminescence quantum yield: 0.332

## CCn1c2ccccc2oc2c(C#N)c3c(oc4ccccc4n3CC)c(C#N)c21
In ClC(Cl)Cl
  photoluminescence quantum yield: 0.44

## Cc1cc(C)c(B(c2cc3ccc4cccc5ccc(c2)c3c45)c2c(C)cc(C)cc2C)c(C)c1
In Cc1ccccc1
  photoluminescence quantum yield: 0.68

## c1cc2ccc3cc4[nH]ccc4c4ccc(c1)c2c34
In CCOC(C)=O
  photoluminescence quantum yield: 0.95

## COc1ccc(-c2c3ccccc3c(-c3ccc(OC)cc3)c3ccccc23)cc1
In ClCCl
  photoluminescence quantum yield: 0.59

## C[Si](C)(C)C#Cc1cc2ccc3cc(C#C[Si](C)(C)C)cc4ccc(c1)c2c34
In Cc1ccccc1
  photoluminescence quantum yield: 0.19

## COc1ccc(C2=[N+]3C(=Nc4c(-c5ccccc5)cc(-c5ccc(OC)cc5)n4[B-]3(F)F)C(c3ccccc3)=C2)cc1
In ClC(Cl)Cl
  photoluminescence quantum yield: 0.36
In ClCCl
  photoluminescence quantum yield: 0.36

## CC(=O)c1ccc(/C=C/C=C/C2=NC3C(=O)NC(N)=NC3N2[C@H]2C[C@H](O)[C@@H](CO)O2)cc1 (some centres not stated)
In C1COCCO1
  photoluminescence quantum yield: 0.59
In CC#N
  photoluminescence quantum yield: 0.57
In CO
  photoluminescence quantum yield: 0.015

## Cc1cc(-c2ccc(C(C)(C)C)cc2)c2nsnc2c1-c1ccc(C(C)(C)C)cc1
In ClCCl
  photoluminescence quantum yield: 0.14

## CC(C)(C)c1ccc2c(c1)sc1[n+]2[B-](F)(F)n2c(c3cccc4cccc2c43)=N1
In C1CCOC1
  photoluminescence quantum yield: 0.85
In CC#N
  photoluminescence quantum yield: 0.93
In CCCCCC
  photoluminescence quantum yield: 0.87
In Cc1ccccc1
  photoluminescence quantum yield: 0.86
In ClCCl
  photoluminescence quantum yield: 0.86

## CCCCCCCCCCCCOc1cc2c3c(ccc4c5c(OCCCCCCCCCCCC)cc6c7c(ccc(c1c34)c75)C(=O)N(C1CCCCC1)C6=O)C(=O)N(C1CCCCC1)C2=O
In ClC(Cl)Cl
  photoluminescence quantum yield: 0.724

## CC1(C)Cc2c(c3ccccc3c3nc4c(nc23)c2c(c3ccccc34)OC(C)(C)C2)O1
In C1CCCCC1
  photoluminescence quantum yield: 0.43
In C1COCCO1
  photoluminescence quantum yield: 0.53
In CC#N
  photoluminescence quantum yield: 0.39
In CC(C)O
  photoluminescence quantum yield: 0.57
In CCCCCC
  photoluminescence quantum yield: 0.4
In ClC(Cl)Cl
  photoluminescence quantum yield: 0.43
In c1ccccc1
  photoluminescence quantum yield: 0.39

## Cc1ccc(C2=C3C=C(I)C=[N+]3[B-](F)(F)n3c2cc(I)c3I)cc1
In C1CCCCC1
  photoluminescence quantum yield: 0.06
In CC#N
  photoluminescence quantum yield: 0.02
In CCO
  photoluminescence quantum yield: 0.026
In CCOC(C)=O
  photoluminescence quantum yield: 0.034
In CO
  photoluminescence quantum yield: 0.025
In OCC(F)(F)F
  photoluminescence quantum yield: 0.022

## O=C1c2ccc(N(c3ccc(-c4ccccc4)cc3)c3ccc(-c4ccccc4)cc3)cc2C(=O)c2ccc(N(c3ccc(-c4ccccc4)cc3)c3ccc(-c4ccccc4)cc3)cc21
In Cc1ccccc1
  photoluminescence quantum yield: 0.1
In c1ccc2c(c1)c1ccccc1n2-c1ccc(-c2ccc(-n3c4ccccc4c4ccccc43)cc2)cc1
  photoluminescence quantum yield: 0.42

## COc1ccc2c(c1)-c1cc3c(cc1[Si]2(c1ccccc1)c1ccccc1)-c1ccccc1[Si]3(c1ccccc1)c1ccccc1
In ClCCl
  photoluminescence quantum yield: 0.4

## CC(C)(C)c1ccc(-c2ccc3c(-c4ccc(C(C)(C)C)c5ccccc45)cc4c5cc(-c6ccc(C(C)(C)C)c7ccccc67)ccc5c(-c5ccc(C(C)(C)C)c6ccccc56)cc4c3c2)c2ccccc12
In ClCCl
  photoluminescence quantum yield: 0.72

## CCCCN1C(=O)C(=C/C=C/C=C2N(CCCC)c3ccccc3N2CCCC)C(=O)N(CCCC)C1=S
In CCCCCC
  photoluminescence quantum yield: 0.115
In CCO
  photoluminescence quantum yield: 0.013
In CN(C)C=O
  photoluminescence quantum yield: 0.023
In Cc1ccccc1
  photoluminescence quantum yield: 0.168
In ClC(Cl)Cl
  photoluminescence quantum yield: 0.046
In ClCCl
  photoluminescence quantum yield: 0.032

## COC(=O)COc1ccc(/C=C/C2=[N+]3C(=C(c4ccccc4)c4c(C)cc(C)n4[B-]3(F)F)C(C)=C2)cc1
In CO
  photoluminescence quantum yield: 1

## CC1(C)c2ccccc2N(c2ccccc2)c2ccc(-c3ccc(S(=O)(=O)c4ccc(-c5ccc6c(c5)C(C)(C)c5ccccc5N6c5ccccc5)cc4)cc3)cc21
In O=P(c1ccccc1)(c1ccccc1)c1ccccc1Oc1ccccc1P(=O)(c1ccccc1)c1ccccc1
  photoluminescence quantum yield: 0.87

## N#Cc1ccc(-c2cc3c(ccc4sccc43)s2)cc1
In ClCCl
  photoluminescence quantum yield: 0.22

## CCCn1c2cccc3oc4cccc5oc6cccc1c6[c+](c45)c32
In CC#N
  photoluminescence quantum yield: 0.49
In CO
  photoluminescence quantum yield: 0.54
In ClCCl
  photoluminescence quantum yield: 0.59
In OCC(O)CO
  photoluminescence quantum yield: 0.47

## Cc1ccc2[nH]c(-c3ccc(-c4ccc(-c5ccc(-c6nc7cc(C)ccc7[nH]6)cc5)c(F)c4)cc3)nc2c1
In CN(C)C=O
  photoluminescence quantum yield: 0.98

## O=S(=O)([O-])c1ccc([O-])c2ccccc12
In O
  photoluminescence quantum yield: 0.26

## COc1cc(OC)c(C2=C3C(C)=CC(C)=[N+]3[B-](F)(F)n3c(C)cc(C)c32)c(OC)c1
In C1CCOC1
  photoluminescence quantum yield: 0.78
In CC#N
  photoluminescence quantum yield: 0.55
In CC(=O)C(C)(C)C
  photoluminescence quantum yield: 0.69
In CC(C)=O
  photoluminescence quantum yield: 0.8
In CCCCCC
  photoluminescence quantum yield: 0.95
In CCOC(C)=O
  photoluminescence quantum yield: 0.64
In CO
  photoluminescence quantum yield: 0.68

## Cc1cccc(C2=Cc3c4ccccc4cc[n+]3[B-](F)(F)O2)c1
In ClC(Cl)Cl
  photoluminescence quantum yield: 0.06

## CN(C)c1ccc(-c2nc(-c3ccc(N(C)C)cc3)c3ccccc3n2)cc1
In ClCCl
  photoluminescence quantum yield: 0.8

## C(#Cc1ccc(C#Cc2ccc(C#Cc3ccccc3)cc2)cc1)c1ccccc1
In ClC(Cl)Cl
  photoluminescence quantum yield: 0.61

## COc1ccc(C#Cc2ccc(C#N)cc2)cc1OC
In C1COCCO1
  photoluminescence quantum yield: 0.16
In CC#N
  photoluminescence quantum yield: 0.13
In CCCCCC
  photoluminescence quantum yield: 0.16
In CCCCCCC
  photoluminescence quantum yield: 0.16
In CCCO
  photoluminescence quantum yield: 0.13
In CCOC(C)=O
  photoluminescence quantum yield: 0.13
In CS(C)=O
  photoluminescence quantum yield: 0.21
In ClC(Cl)Cl
  photoluminescence quantum yield: 0.18
In ClCCl
  photoluminescence quantum yield: 0.22

## Cc1c2c(c(C)c3ccccc13)C1=CC3Nc4ccccc4NC3C=C12 (configuration not stated)
In ClC(Cl)Cl
  photoluminescence quantum yield: 0.02

## Cc1ccc(-c2oc3cccc4c5c(-c6ccc(C)cc6)c(=N)oc6cccc(c2c34)c65)cc1
In ClC(Cl)Cl
  photoluminescence quantum yield: 0.1

## CC(C)(C)c1ccc2c(c1)c1cc(C(C)(C)C)ccc1n2-c1cc(C(=O)c2cccnc2)cc(-n2c3ccc(C(C)(C)C)cc3c3cc(C(C)(C)C)ccc32)c1
In Cc1ccccc1
  photoluminescence quantum yield: 0.07
In c1cc(-c2cccc(-n3c4ccccc4c4ccccc43)c2)cc(-n2c3ccccc3c3ccccc32)c1
  photoluminescence quantum yield: 0.92

## N#Cc1cc2ccc(O)cc2oc1=O
In C1CCCCC1
  photoluminescence quantum yield: 0.0105
In C1CCOC1
  photoluminescence quantum yield: 0.00102
In CC#N
  photoluminescence quantum yield: 0.00059
In CCOC(C)=O
  photoluminescence quantum yield: 0.0597
In CS(C)=O
  photoluminescence quantum yield: 0.00123
In ClC(Cl)Cl
  photoluminescence quantum yield: 0.0509

## CC1=[N+]2C(=C(c3ccc(N(c4ccccc4)c4ccccc4)cc3)c3ccc(C)n3[B-]2(F)F)C=C1c1cc2n(c1)[B-](F)(F)[N+]1=CC=CC1=C2c1c(C)cc(C)cc1C
In C1CCCCC1
  photoluminescence quantum yield: 0.37
In CCOC(C)=O
  photoluminescence quantum yield: 0.1

## CN(C)c1ccc(/C=C/c2cc(/C=C/c3ccc(N(C)C)cc3)ncn2)cc1
In ClCCl
  photoluminescence quantum yield: 0.4

## Nc1cc2nc3cc(Cl)c(Cl)cc3nc2cc1N
In CCO
  photoluminescence quantum yield: 0.1

## COc1ccc(-c2[nH]c(=O)n3c2-c2ccccc2C3=O)c(OC)c1
In CC#N
  photoluminescence quantum yield: 0.48
In CO
  photoluminescence quantum yield: 0.39
In ClCCl
  photoluminescence quantum yield: 0.57
